According to patent US12649744B2, “N-(pyridin-2-yl)-6,7,8,9-tetrahydro-5h-5,8-epiminocyclohepta[c]pyridine-10-carboxamide derivatives and similar compounds as GPR65 modulators for the treatment of cancer” (PATHIOS THERAPEUTICS LIMITED, priority 2020, dated 2026):

What follows are molecules tested against human recombinant GPR65 (Homo sapiens, UniProt Q8IYL9) (assay: Human GPR65 cAMP HTRF antagonist assay). Conditions: not given.
Format: cell-based
Excerpt: The “Human GPR65 cyclic adenosine monophosphate (cAMP) Homogeneous Time Resolved Fluorescence (HTRF) antagonist assay”, or simply “cAMP assay”, as described below, can be used to measure the potency of GPR65 modulators, which is expressed as the concentration of compound required to reduce the increase in cAMP concentration upon GPR65 activation by 50% (i.e. an IC50).
Human GPR65 Cyclic Adenosine Monophosphate (cAMP) Homogeneous Time Resolved Fluorescence (HTRF) Antagonist Assay Procedure
IC50 data was obtained by the following procedure:
1321N1 human astrocytoma cells stably expressing human recombinant GPR65 (1321N1-hrGPR65 cells, EuroscreenFast) were cultured according to the vendor's instructions.
Compounds were tested for their ability to antagonise GPR65, through measuring the concentration of cytoplasmic cAMP following treatment of the cells at a pH of 7.2 to activate GPR65 signalling and addition of the compound to be tested. The extent to which the expected rise in cAMP concentration upon GPR65 activation was suppressed by the added compound is indicative of its potency. The assay was carried out according to EuroscreenFast assay methodology as follows.
On the day of the assay, test compounds were added to 384-well, low volume, white microtiter plates by acoustic dispensing. KRH buffer (5 mM KCl, 1.25 mM MgSO4, 124 mM NaCl, 25 mM HEPES, 13.3 mM Glucose, 1.25 mM KH2PO4 and 1.45 mM CaCl2) was adjusted to pH 6.5, pH 7.6 and pH 8.4 by adding NaOH. 1321N1-hGPR65 cells were rapidly thawed and diluted in KRH, pH 7.6 prior to centrifugation at 300×g for 5 min and resuspension in assay buffer (KRH, pH 7.6, supplemented with 1 mM 3-isobutyl-1-methylxanthine (IBMX) and 200 μM ethylenediaminetetraacetic acid (EDTA)). Cells were added to assay plates at a density of 2,000 cells per well in a volume of 5 μl. Assay plates were briefly centrifuged at 100×g and then incubated at room temperature for 30 min. Cells were stimulated by the addition of 5 μL KRH, pH 6.5, to achieve an assay pH of 7.2, while control wells received 5 μl KRH, pH 8.4 to achieve an assay pH of 7.9. Assay plates were briefly centrifuged at 100×g and then incubated at room temperature for 30 min.
Accumulation of cAMP was detected by cAMP HTRF kit (Cisbio). d2-labeled cAMP and cryptate-labeled anti-cAMP antibody in Lysis and Detection Buffer (Cisbio) were added to assay plates, and the plates were incubated at room temperature for 1 h. HTRF measurements were performed using a Pherastar FSX instrument. Acceptor and donor emission signals were measured at 665 nm and 620 nm, respectively, and HTRF ratios were calculated as signal665 nm/signal620nm×10^4. Data were normalised to high and low control values and fitted with 4-parameter logistic regression to determine hGPR65 IC50 values for the test compounds, which are shown in Table 1.

human recombinant GPR65, sequence (Q8IYL9 whole entry): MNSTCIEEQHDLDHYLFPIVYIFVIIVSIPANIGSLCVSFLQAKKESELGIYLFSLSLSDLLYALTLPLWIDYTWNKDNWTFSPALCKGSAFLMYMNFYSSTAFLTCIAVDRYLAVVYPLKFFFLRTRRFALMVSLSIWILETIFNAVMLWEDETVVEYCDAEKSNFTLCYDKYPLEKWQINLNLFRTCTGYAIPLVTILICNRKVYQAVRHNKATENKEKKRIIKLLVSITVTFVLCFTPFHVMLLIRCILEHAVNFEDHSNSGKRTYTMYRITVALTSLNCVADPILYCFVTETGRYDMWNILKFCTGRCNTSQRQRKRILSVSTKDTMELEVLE

SMILES | IC50 [nM]
O=C(Nc1cc(Cl)c(Cl)cn1)N1C2CCC1c1c[nH]c(=O)c(F)c1C2 (racemic) [Compound 11, (±)-N-(4,5-dichloropyridin-2-yl)-4-fluoro-3-oxo-3,5,6,7,8,9-hexahydro-2H-6,9-epiminocyclohepta[c]pyridine-10-carboxamide] | < 500

Same assay, conditions: 1321N1-hrGPR65 cells, assay pH of 7.2, cAMP HTRF; read-out: hGPR65 IC50

SMILES | IC50 [nM]
O=C(Nc1ccc(OC(F)(F)F)cn1)N1[C@H]2CC[C@@H]1c1ccnc(F)c1C2 [Compound 40, (5R,8S)-1-Fluoro-N-(5-(trifluoromethoxy)pyridin-2-yl)-6,7,8,9-tetrahydro-5H-5,8-epiminocyclohepta[c]pyridine-10-carboxamide] | < 500
O=C(Nc1cnc(C(F)(F)F)cn1)N1C2CCC1c1cncnc1C2 (racemic) [Compound 6, (±)-N-(5-(trifluoromethyl)pyrazin-2-yl)-6,7,8,9-tetrahydro-5H-5,8-epiminocyclohepta-[d]pyrimidine-10-carboxamide] | > 5000
O=C(Nc1nnc(C(F)(F)F)s1)N1[C@H]2CC[C@@H]1c1ccnc(F)c1C2 [Compound 23, (5R,8S)-1-fluoro-N-(5-(trifluoromethyl)-1,3,4-thiadiazol-2-yl)-6,7,8,9-tetrahydro-5H-5,8-epiminocyclohepta[c]pyridine-10-carboxamide] | < 500
O=C(Nc1nnc(-c2ccccc2)s1)N1[C@H]2CC[C@@H]1c1ccnc(F)c1C2 [Compound 33, (5R,8S)-1-Fluoro-N-(5-phenyl-1,3,4-thiadiazol-2-yl)-6,7,8,9-tetrahydro-5H-5,8-epiminocyclohepta[c]pyridine-10-carboxamide] | < 500
N#Cc1cnc(NC(=O)N2[C@H]3CC[C@@H]2c2ccnc(F)c2C3)cc1Cl [Compound 46, (5R,8S)-N-(4-Chloro-5-cyanopyridin-2-yl)-1-fluoro-6,7,8,9-tetrahydro-5H-5,8-epiminocyclohepta[c]pyridine-10-carboxamide] | < 500
O=C(Nc1cc(C(F)(F)F)ncc1F)N1[C@H]2CC[C@@H]1c1ccnc(F)c1C2 [Compound 18, (5R,8S)-1-fluoro-N-(5-fluoro-2-(trifluoromethyl)pyridin-4-yl)-6,7,8,9-tetrahydro-5H-5,8-epiminocyclohepta[c]pyridine-10-carboxamide] | 500 to 5000
O=C(Nc1cnc(Cl)c(Cl)c1)N1[C@H]2CC[C@@H]1c1c[nH]c(=O)cc1C2 [Compound 13, (6S,9R)-N-(5,6-dichloropyridin-3-yl)-3-oxo-3,5,6,7,8,9-hexahydro-2H-6,9-epiminocyclo-hepta[c]pyridine-10-carboxamide] | < 500
O=C(Nc1cc(Cl)c(C(F)(F)F)cn1)N1[C@H]2CC[C@@H]1c1ccnc(F)c1C2 [Compound 1, (5R,8S)-N-(4-chloro-5-(trifluoromethyl)pyridin-2-yl)-1-fluoro-6,7,8,9-tetrahydro-5H-5,8-epiminocyclohepta[c]pyridine-10-carboxamide] | < 500
O=C(Nc1nnc(C2CCOCC2)s1)N1[C@H]2CC[C@@H]1c1ccnc(F)c1C2 [Compound 32, (5R,8S)-1-Fluoro-N-(5-(tetrahydro-2H-pyran-4-yl)-1,3,4-thiadiazol-2-yl)-6,7,8,9-tetrahydro-5H-5,8-epiminocyclohepta[c]pyridine-10-carboxamide] | > 5000
O=C(Nc1cc(C(F)(F)F)on1)N1[C@H]2CC[C@@H]1c1c[nH]c(=O)cc1C2 [Compound 49, (6S,9R)-3-oxo-N-(5-(trifluoromethyl)isoxazol-3-yl)-3,5,6,7,8,9-hexahydro-2H-6,9-epiminocyclohepta[c]pyridine-10-carboxamide] | < 500
O=C(Nc1nnc(-c2ccccc2)o1)N1[C@H]2CC[C@@H]1c1ccnc(F)c1C2 [Compound 45, (5R,8S)-1-Fluoro-N-(5-phenyl-1,3,4-oxadiazol-2-yl)-6,7,8,9-tetrahydro-5H-5,8-epiminocyclohepta[c]pyridine-10-carboxamide] | 500 to 5000
O=C(Nc1ccc(OC(F)F)cn1)N1[C@H]2CC[C@@H]1c1ccnc(F)c1C2 [Compound 39, (5R,8S)-N-(5-(Difluoromethoxy)pyridin-2-yl)-1-fluoro-6,7,8,9-tetrahydro-5H-5,8-epiminocyclohepta[c]pyridine-10-carboxamide] | 500 to 5000
O=C(Nc1ccc2nonc2c1)N1[C@H]2CC[C@@H]1c1ccnc(F)c1C2 [Compound 35, (5R,8S)-N-(Benzo[c][1,2,5]oxadiazol-5-yl)-1-fluoro-6,7,8,9-tetrahydro-5H-5,8-epiminocyclohepta[c]pyridine-10-carboxamide] | 500 to 5000
O=C(Nc1ccc(Cl)c(Cl)n1)N1[C@H]2CC[C@@H]1c1c[nH]c(=O)cc1C2 [Compound 5, (6S,9R)-N-(5,6-dichloropyridin-2-yl)-3-oxo-3,5,6,7,8,9-hexahydro-2H-6,9-epiminocyclo-hepta[c]pyridine-10-carboxamide] | > 5000
O=C(Nc1cnc(-n2nccn2)c(Cl)c1)N1[C@H]2CC[C@@H]1c1ccnc(F)c1C2 [Compound 15, (5R,8S)-N-(5-chloro-6-(2H-1,2,3-triazol-2-yl)pyridin-3-yl)-1-fluoro-6,7,8,9-tetrahydro-5H-5,8-epiminocyclohepta[c]pyridine-10-carboxamide] | 500 to 5000
N#Cc1cc(NC(=O)N2[C@H]3CC[C@@H]2c2ccnc(F)c2C3)no1 [Compound 52, (5R,8S)-N-(5-cyanoisoxazol-3-yl)-1-fluoro-6,7,8,9-tetrahydro-5H-5,8-epiminocyclohepta[c]pyridine-10-carboxamide] | < 500
O=C(Nc1cc(C(F)(F)F)no1)N1[C@H]2CC[C@@H]1c1ccnc(F)c1C2 [Compound 50, (5R,8S)-1-fluoro-N-(3-(trifluoromethyl)isoxazol-5-yl)-6,7,8,9-tetrahydro-5H-5,8-epiminocyclohepta[c]pyridine-10-carboxamide] | < 500
O=C(Nc1ncc(C(F)(F)F)cn1)N1[C@H]2CC[C@@H]1c1ccnc(F)c1C2 [Compound 25, (5R,8S)-1-fluoro-N-(5-(trifluoromethyl)pyrimidin-2-yl)-6,7,8,9-tetrahydro-5H-5,8-epiminocyclohepta[c]pyridine-10-carboxamide] | 500 to 5000
N#Cc1ccc(NC(=O)N2[C@H]3CC[C@@H]2c2ccnc(F)c2C3)nc1 [Compound 41, (5R,8S)-N-(5-Cyanopyridin-2-yl)-1-fluoro-6,7,8,9-tetrahydro-5H-5,8-epiminocyclohepta[c]pyridine-10-carboxamide] | 500 to 5000
O=C(Nc1noc(-c2ccccc2)n1)N1[C@H]2CC[C@@H]1c1ccnc(F)c1C2 [Compound 22, (5R,8S)-1-fluoro-N-(5-phenyl-1,2,4-oxadiazol-3-yl)-6,7,8,9-tetrahydro-5H-5,8-epiminocyclohepta[c]pyridine-10-carboxamide] | < 500
N#Cc1ccc(NC(=O)N2[C@H]3CC[C@@H]2c2ccnc(F)c2C3)nc1Cl [Compound 47, (5R,8S)-N-(6-Chloro-5-cyanopyridin-2-yl)-1-fluoro-6,7,8,9-tetrahydro-5H-5,8-epiminocyclohepta[c]pyridine-10-carboxamide] | 500 to 5000
N#Cc1cnc(NC(=O)N2[C@H]3CC[C@@H]2c2ccnc(F)c2C3)c(C(F)(F)F)c1 [Compound 38, (5R,8S)-N-(5-Cyano-3-(trifluoromethyl)pyridin-2-yl)-1-fluoro-6,7,8,9-tetrahydro-5H-5,8-epiminocyclohepta[c]pyridine-10-carboxamide] | < 500
O=C(Nc1ccc(C(F)(F)F)cn1)N1[C@H]2CC[C@@H]1c1ccnc(F)c1C2 [Compound 19, (5R,8S)-1-fluoro-N-(5-(trifluoromethyl)pyridin-2-yl)-6,7,8,9-tetrahydro-5H-5,8-epiminocyclohepta[c]pyridine-10-carboxamide] | < 500
